This series in a line: Estimation of residue content in Solvent Blue 67 dye by filtration of the dye solution in organic solvent. It is filed as physicochemical. As for the experimental part: For the preparation of Solvent Blue 67, chlorosulfonation is carried out in a vessel by reacting chlorosulfonic acid with 300 g of crude copper phthalocyanine blue (CPC) in presence of acid chloride followed by the process of drowning, filtration, homogenization, condensation, clarification, filtration, spin flash drying, airclassifying and sieving to retrieve the final product. The final product obtained is 560 g to 600 g of Solvent Blue 67 with purity 100%+5% coloristic value. Further, the estimation of residue content is determined by filtration process of prepared Solvent Blue 67 dye using organic solvent and the weight of residue is calculated.
An adequate quantity of Solvent Blue 67 of about 20 g to 60 g is dissolved in 50 ml to 150 ml of alkyl ester (or alkyl ketonic organic solvent) based on end process in a glass beaker. […]
The resultant dye solution is filtered through a filtration assembly. […] The residue left in the beaker is quantitatively transferred to the filter using 20 ml to 30 ml of alkyl ester (or alkyl ketonic organic solvent) and the filtrate is further washed with 15 to 25 ml of the same solvent to make it colour free. […] The weight of residue is calculated as weights of before and after filtration and expressed in PPM. […]

Results on one substance are retold here after patent publication US20260242606A1, “PROCESS OF PREPARATION OF RESIDUE FREE SOLVENT BLUE 67 DYE” (RATHI DYE CHEM (P) LTD, priority 2023, published 2026).

Regarding Solvent Blue 67, the residue content result (Example 1, after clarification 225 (circulated in filter of 10 to 100 mesh up to 24 hrs), cake dried) is recorded as “below 40 PPM”. For the same substance, where the note is “dye dissolved in alkyl ester or alkyl ketonic organic solvent, filtered through 20 to 50 micron stainless-steel mesh”, the “presence of residue (FIGS. 2a and 2b)” value was “does not show presence of any amount of residue”.
